Experiment [1] addresses Norepinephrine transporter (Rattus norvegicus, UniProt Q9WTR4). Description: Compound has been evaluated for its affinity towards Norepinephrine transporter by displacing the radio isotope [3H]nisoxetine from rat forebrain.
The target in experiment [2] is Sodium-dependent serotonin transporter (Rattus norvegicus, UniProt P31652). Description: Affinity for Serotonin transporter by displacing [3H]paroxetine from rat forebrain.
Experiment [3] addresses Sodium-dependent dopamine transporter (Rattus norvegicus, UniProt P23977). Description: Displacement of [3H]GBR-12935 from rat forebrain Dopamine transporter. In general terms: In a radioligand displacement assay an active substance lowers the binding of a labelled ligand.

Some results are limits rather than exact numbers.

Chain of Norepinephrine transporter (Q9WTR4 whole entry): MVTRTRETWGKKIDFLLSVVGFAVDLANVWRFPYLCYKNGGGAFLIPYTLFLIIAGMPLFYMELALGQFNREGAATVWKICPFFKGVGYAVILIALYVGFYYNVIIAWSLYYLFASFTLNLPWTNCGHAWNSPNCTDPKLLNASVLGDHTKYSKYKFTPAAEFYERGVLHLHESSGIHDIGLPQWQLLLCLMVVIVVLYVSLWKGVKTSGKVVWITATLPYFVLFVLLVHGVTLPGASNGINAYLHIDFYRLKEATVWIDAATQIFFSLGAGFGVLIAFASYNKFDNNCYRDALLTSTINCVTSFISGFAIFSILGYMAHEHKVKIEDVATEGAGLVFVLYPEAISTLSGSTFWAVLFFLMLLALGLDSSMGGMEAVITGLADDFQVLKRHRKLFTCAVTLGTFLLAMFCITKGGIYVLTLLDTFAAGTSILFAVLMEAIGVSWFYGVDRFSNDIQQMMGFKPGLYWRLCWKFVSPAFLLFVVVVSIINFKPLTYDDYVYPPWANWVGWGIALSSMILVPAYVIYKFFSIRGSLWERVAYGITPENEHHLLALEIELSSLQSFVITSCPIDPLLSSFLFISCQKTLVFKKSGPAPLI
Chain of Sodium-dependent dopamine transporter (P23977 whole entry): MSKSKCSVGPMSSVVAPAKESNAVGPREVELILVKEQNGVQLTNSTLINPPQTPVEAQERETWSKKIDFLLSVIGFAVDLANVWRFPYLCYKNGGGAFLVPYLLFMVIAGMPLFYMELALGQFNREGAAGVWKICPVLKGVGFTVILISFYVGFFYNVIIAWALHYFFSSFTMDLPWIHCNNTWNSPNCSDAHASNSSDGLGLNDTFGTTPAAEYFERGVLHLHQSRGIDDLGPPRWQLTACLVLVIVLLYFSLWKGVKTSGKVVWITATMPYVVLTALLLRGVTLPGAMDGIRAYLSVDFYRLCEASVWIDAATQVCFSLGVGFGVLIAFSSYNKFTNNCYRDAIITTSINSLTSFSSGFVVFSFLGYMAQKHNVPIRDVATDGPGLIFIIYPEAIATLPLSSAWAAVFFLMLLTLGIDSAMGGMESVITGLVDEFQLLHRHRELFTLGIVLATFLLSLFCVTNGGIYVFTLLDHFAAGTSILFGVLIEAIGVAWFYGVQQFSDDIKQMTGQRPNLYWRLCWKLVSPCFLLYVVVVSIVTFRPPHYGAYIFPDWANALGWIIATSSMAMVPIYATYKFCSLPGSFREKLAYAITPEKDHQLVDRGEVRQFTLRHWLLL
Chain of Sodium-dependent serotonin transporter (P31652 whole entry): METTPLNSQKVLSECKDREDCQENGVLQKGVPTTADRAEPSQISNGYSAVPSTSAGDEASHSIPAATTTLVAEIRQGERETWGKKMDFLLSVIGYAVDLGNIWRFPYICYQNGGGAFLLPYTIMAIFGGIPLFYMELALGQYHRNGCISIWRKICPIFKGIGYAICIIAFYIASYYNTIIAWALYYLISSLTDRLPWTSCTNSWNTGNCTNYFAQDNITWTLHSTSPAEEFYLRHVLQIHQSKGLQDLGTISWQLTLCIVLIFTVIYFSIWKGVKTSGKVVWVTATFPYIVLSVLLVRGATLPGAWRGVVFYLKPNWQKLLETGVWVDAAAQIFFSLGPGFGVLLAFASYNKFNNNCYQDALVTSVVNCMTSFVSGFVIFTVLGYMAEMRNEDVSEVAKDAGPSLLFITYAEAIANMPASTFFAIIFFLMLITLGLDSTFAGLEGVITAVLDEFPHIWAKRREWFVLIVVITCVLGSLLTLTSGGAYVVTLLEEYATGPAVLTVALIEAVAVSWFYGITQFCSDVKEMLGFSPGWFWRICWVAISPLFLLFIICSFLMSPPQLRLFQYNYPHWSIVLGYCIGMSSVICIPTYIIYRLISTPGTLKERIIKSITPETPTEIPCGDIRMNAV

For `COC(=O)C1C(c2ccc(-c3ccc(OC)cc3)cc2)CC2CCC1N2C` (centres undefined), affinity in experiment [1] was put at a Ki of 352 nM.

For the compound `COC(=O)C1C(c2ccc(-c3ccccc3OC)cc2)CC2CCC1N2C` (centres undefined), the Ki (usually the equilibrium dissociation constant of an inhibitor or competing ligand from its target) in experiment [1] was found to be 10000 nM. Take `COC(=O)C1C(c2ccc(-c3ccc([N+](=O)[O-])cc3)cc2)CC2CCC1N2C` (centres undefined): in experiment [1], the inhibition constant (Ki) was determined as 370 nM. Regarding `COC(=O)C1C(c2ccc(-c3cccc([N+](=O)[O-])c3)cc2)CC2CCC1N2C` (centres undefined), in experiment [1], the affinity corresponds to a Ki of 963 nM. As for `COC(=O)[C@@H]1C2CC[C@H](C[C@@H]1c1ccc(I)cc1)N2C`, the Ki was 0.46 nM in experiment [2], 0.96 nM in experiment [3] and 2.8 nM in experiment [1]. Take `COC(=O)C1C(c2ccc(-c3ccccc3[N+](=O)[O-])cc2)CC2CCC1N2C` (centres undefined): the inhibitory constant (Ki) in experiment [2], in experiment [3] and in experiment [1] was above 3000 nM each time. The compound `COC(=O)C1C(c2ccc(-c3ccccc3C(C)=O)cc2)CC2CCC1N2C` (centres undefined) displayed an inhibitory constant (Ki) in experiment [1] above 20000 nM. Same read-out and setting: for `COC(=O)C1C(c2ccc(-c3ccc(C(C)=O)cc3)cc2)CC2CCC1N2C` (centres undefined) the value was 754 nM. The compound `COC(=O)C1C(c2ccc(-c3cccc(OC)c3)cc2)CC2CCC1N2C` (centres undefined) came in with a Ki in experiment [1] above 3000 nM. As for `COC(=O)C1C(c2ccc(-c3cccc(C(C)=O)c3)cc2)CC2CCC1N2C` (centres undefined), in experiment [1], the inhibition constant (Ki) was above 50000 nM.
